US20240043427A1 (Gilead Sciences, Inc., priority 2020, published 2024)

What follows are molecules tested against CD73 (Homo sapiens (Human), UniProt P21589). Settings: 1 mM NaH2PO4 in enzyme buffer, CD73 0.3 nM, AMP 15 uM.
Assay type: biochemical

Chain of CD73 (P21589 27-574): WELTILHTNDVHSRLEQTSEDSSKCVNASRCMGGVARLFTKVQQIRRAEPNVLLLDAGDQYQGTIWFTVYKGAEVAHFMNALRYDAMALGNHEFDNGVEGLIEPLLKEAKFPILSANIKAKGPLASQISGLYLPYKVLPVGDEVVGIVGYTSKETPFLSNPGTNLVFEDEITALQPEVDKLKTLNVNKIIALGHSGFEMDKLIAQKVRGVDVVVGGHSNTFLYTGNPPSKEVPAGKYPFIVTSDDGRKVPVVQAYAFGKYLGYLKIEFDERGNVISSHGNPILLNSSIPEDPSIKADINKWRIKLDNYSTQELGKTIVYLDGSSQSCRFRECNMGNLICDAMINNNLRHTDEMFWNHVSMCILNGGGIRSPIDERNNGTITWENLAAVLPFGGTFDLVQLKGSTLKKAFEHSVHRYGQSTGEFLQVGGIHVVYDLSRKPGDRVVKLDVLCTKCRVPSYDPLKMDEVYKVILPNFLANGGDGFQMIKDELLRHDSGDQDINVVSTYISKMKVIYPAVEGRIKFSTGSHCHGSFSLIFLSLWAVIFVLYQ

SMILES | IC50 [nM]
O=C(c1cccc([C@H]2C[C@@H]2c2cc(-c3c[nH]c(=O)[nH]c3=O)nn3ccnc23)c1)N1CCC(F)(F)C1 (racemic) [Example 306, 5-(8-((1S,2S)-2-(3-(3,3-difluoropyrrolidine-1-carbonyl)phenyl)cyclopropyl)imidazo[1,2-b]pyridazin-6-yl)pyrimidine-2,4(1H,3H)-dione] | 1.67
CC1(C)CCN(C(=O)c2ccc([C@H]3C[C@@H]3c3cc(-c4c[nH]c(=O)[nH]c4=O)nn4ccnc34)cc2)C1 (racemic) [Example 307, 5-(8-((1S,2S)-2-(4-(3,3-dimethylpyrrolidine-1-carbonyl)phenyl)cyclopropyl)imidazo[1,2-b]pyridazin-6-yl)pyrimidine-2,4(1H,3H)-dione] | 16.1
CC1(C)CCN(C(=O)c2cccc([C@H]3C[C@@H]3c3cc(-c4c[nH]c(=O)[nH]c4=O)nn4ccnc34)c2)C1 (racemic) [Example 308, 5-(8-((1S,2S)-2-(3-(3,3-dimethylpyrrolidine-1-carbonyl)phenyl)cyclopropyl)imidazo[1,2-b]pyridazin-6-yl)pyrimidine-2,4(1H,3H)-dione] | 5.47
O=c1[nH]cc(-c2cc([C@H]3C[C@@H]3c3ccccc3OC(F)(F)F)c3nccn3n2)c(=O)[nH]1 (racemic) [Example 309, 5-(8-((1S,2S)-2-(2-(trifluoromethoxy)phenyl)cyclopropyl)imidazo[1,2-b]pyridazin-6-yl)pyrimidine-2,4(1H,3H)-dione] | 42.3
N#Cc1cncc([C@H]2C[C@@H]2c2cc(-c3c[nH]c(=O)[nH]c3=O)nn3ccnc23)c1 (racemic) [Example 311, 5-((1S,2S)-2-(6-(2,4-dioxo-1,2,3,4-tetrahydropyrimidin-5-yl)imidazo[1,2-b]pyridazin-8-yl)cyclopropyl)nicotinonitrile] | 4.72
CNC(=O)c1ccc([C@H]2C[C@@H]2c2cc(-c3c[nH]c(=O)[nH]c3=O)nn3c(F)cnc23)cc1 (racemic) [Example 312, 4-((1S,2S)-2-(6-(2,4-dioxo-1,2,3,4-tetrahydropyrimidin-5-yl)-3-fluoroimidazo[1,2-b]pyridazin-8-yl)cyclopropyl)-N-methylbenzamide] | 1.29
Cc1nc2cc([C@H]3C[C@@H]3c3cc(-c4c[nH]c(=O)[nH]c4=O)nn4ccnc34)ccc2s1 (racemic) [Example 321, 5-(8-((1S,2S)-2-(2-methylbenzo[d]thiazol-5-yl)cyclopropyl)imidazo[1,2-b]pyridazin-6-yl)pyrimidine-2,4(1H,3H)-dione] | 1.12
Cn1ncc2ccc([C@H]3C[C@@H]3c3cc(-c4c[nH]c(=O)[nH]c4=O)nn4ccnc34)cc21 (racemic) [Example 326, 5-(8-((1S,2S)-2-(1-methyl-1H-indazol-6-yl)cyclopropyl)imidazo[1,2-b]pyridazin-6-yl)pyrimidine-2,4(1H,3H)-dione] | 0.91
O=c1[nH]cc(-c2cc([C@H]3C[C@@H]3c3ccc(OC(F)(F)F)cc3)c3nccn3n2)c(=O)[nH]1 (racemic) [Example 359, 5-(8-((1S,2S)-2-(4-(trifluoromethoxy)phenyl)cyclopropyl)imidazo[1,2-b]pyridazin-6-yl)pyrimidine-2,4(1H,3H)-dione] | 1.74
O=c1[nH]cc(-c2cc([C@H]3C[C@@H]3c3ccc4c(c3)OC(F)(F)O4)c3nccn3n2)c(=O)[nH]1 (racemic) [Example 360, 5-(8-((1S,2S)-2-(2,2-difluorobenzo[d][1,3]dioxol-5-yl)cyclopropyl)imidazo[1,2-b]pyridazin-6-yl)pyrimidine-2,4(1H,3H)-dione] | 0.92
O=c1[nH]cc(-c2cc([C@H]3C[C@@H]3c3ccc(OCC(F)(F)F)cn3)c3nccn3n2)c(=O)[nH]1 (racemic) [Example 363, 5-(8-((1S,2S)-2-(5-(2,2,2-trifluoroethoxy)pyridin-2-yl)cyclopropyl)imidazo[1,2-b]pyridazin-6-yl)pyrimidine-2,4(1H,3H)-dione] | 2
O=c1[nH]cc(-c2cc([C@H]3C[C@@H]3c3ncc(C(F)(F)F)s3)c3nccn3n2)c(=O)[nH]1 (racemic) [Example 364, 5-(8-((1S,2S)-2-(5-(trifluoromethyl)thiazol-2-yl)cyclopropyl)imidazo[1,2-b]pyridazin-6-yl)pyrimidine-2,4(1H,3H)-dione] | 7.17
O=c1[nH]cc(-c2cc([C@H]3C[C@@H]3c3cnn(C(F)(F)F)c3)c3nccn3n2)c(=O)[nH]1 (racemic) [Example 366, 5-(8-((1S,2S)-2-(1-(trifluoromethyl)-1H-pyrazol-4-yl)cyclopropyl)imidazo[1,2-b]pyridazin-6-yl)pyrimidine-2,4(1H,3H)-dione] | 6.6
O=c1[nH]cc(-c2cc([C@H]3C[C@@H]3c3cnn(C(F)F)c3)c3nccn3n2)c(=O)[nH]1 (racemic) [Example 368, 5-(8-((1S,2S)-2-(1-(difluoromethyl)-1H-pyrazol-4-yl)cyclopropyl)imidazo[1,2-b]pyridazin-6-yl)pyrimidine-2,4(1H,3H)-dione] | 3.73
O=c1[nH]cc(-c2cc([C@H]3C[C@@H]3c3ccn(C(F)F)n3)c3nccn3n2)c(=O)[nH]1 (racemic) [Example 369, 5-(8-((1S,2S)-2-(1-(difluoromethyl)-1H-pyrazol-3-yl)cyclopropyl)imidazo[1,2-b]pyridazin-6-yl)pyrimidine-2,4(1H,3H)-dione] | 21.5
O=c1[nH]cc(-c2cc([C@H]3C[C@@H]3c3cnn(C(F)F)c3)c3ncc(F)n3n2)c(=O)[nH]1 (racemic) [Example 370, 5-(8-((1S,2S)-2-(1-(difluoromethyl)-1H-pyrazol-4-yl)cyclopropyl)-3-fluoroimidazo[1,2-b]pyridazin-6-yl)pyrimidine-2,4(1H,3H)-dione] | 4.02
O=c1[nH]cc(-c2cc([C@H]3C[C@@H]3c3ccc(OC(F)(F)F)cn3)c3nccn3n2)c(=O)[nH]1 (racemic) [Example 372, 5-(8-((1S,2S)-2-(5-(trifluoromethoxy)pyridin-2-yl)cyclopropyl)imidazo[1,2-b]pyridazin-6-yl)pyrimidine-2,4(1H,3H)-dione] | 3.4
O=c1[nH]cc(-c2cc([C@H]3C[C@@H]3c3ccc(OC(F)(F)F)cn3)c3ncc(F)n3n2)c(=O)[nH]1 (racemic) [Example 374, 5-(3-fluoro-8-((1S,2S)-2-(5-(trifluoromethoxy)pyridin-2-yl)cyclopropyl)imidazo[1,2-b]pyridazin-6-yl)pyrimidine-2,4(1H,3H)-dione] | 4.1
O=c1[nH]cc(-c2cc([C@H]3C[C@@H]3c3ccc(OC(F)(F)F)nc3)c3nccn3n2)c(=O)[nH]1 (racemic) [Example 376, 5-(8-((1S,2S)-2-(6-(trifluoromethoxy)pyridin-3-yl)cyclopropyl)imidazo[1,2-b]pyridazin-6-yl)pyrimidine-2,4(1H,3H)-dione] | 8.07
O=c1[nH]cc(-c2cc([C@H]3C[C@@H]3c3ncc(C(F)(F)F)cn3)c3nccn3n2)c(=O)[nH]1 (racemic) [Example 377, 5-(8-((1S,2S)-2-(5-(trifluoromethyl)pyrimidin-2-yl)cyclopropyl)imidazo[1,2-b]pyridazin-6-yl)pyrimidine-2,4(1H,3H)-dione] | 7.66
O=c1[nH]cc(-c2cc([C@H]3C[C@@H]3c3ncc(C(F)(F)F)cn3)c3ncc(F)n3n2)c(=O)[nH]1 (racemic) [Example 378, 5-(3-fluoro-8-((1S,2S)-2-(5-(trifluoromethyl)pyrimidin-2-yl)cyclopropyl)imidazo[1,2-b]pyridazin-6-yl)pyrimidine-2,4(1H,3H)-dione] | 6.45
